Consider nine molecules from US7241613B1, “Identification of Candida cell surface proteins and their uses” (priority 2002, dated 2007).

For series [1], the system named is Sap2p, Sap1p, Sap1p and Sap1p. Particulars: in micromolar concentrations; cited from earlier work.
Series [2] concerns C. albicans null mutants. As to the kind of experiment: Sensitivities to calcofluor white, SDS or NaCl (spotting cells on YPD plates). In kind it is cell-based, Candida albicans. Conditions: for Calcofluor white (CW) sensitivity: 3-25 μg/ml CW; for Calcofluor white (CW) sensitivity / NaCl sensitivity: YPD plates, 37° C.; for NaCl sensitivity: 1-3 M NaCl. Here is the method:
To investigate the effect of gene disruption on cell wall integrity and remodeling, we tested the sensitivity of all csf null mutants to calcofluor white (CW; Fluorescent Brightener 28-Sigma), SDS or NaCl by spotting cells on plates. Exponential cultures were harvested and adjusted to an OD600 of 0.24. 2.5 μl of samples plus three to four tenfold serial dilutions were deposited on the surface of YPD plates containing increasing concentrations of the compound: 3-25 μg/ml CW, 1-3 M NaCl, 0.01-0.5% SDS. […]
We further characterized the mutants by determining their susceptibility to calcofluor white, SDS and NaCl. The first column contains the name of the strains.
To go further in the analysis, we decided to test cells for their ability to respond to hyperosmotic stresses that require cell wall remodeling and integrity.

Series [3] relates to C. albicans csf null mutants, clinical isolate and parental strain. Nature of the series: Antifungal susceptibility assay (MIC, NCCLS M27A). In kind it is cell-based, Candida albicans. Conditions: all isolates, RPMI 1640, 35° C., 48 hours. On the procedure: Assays were performed at the Center for Medical Mycology, University Hospitals of Cleveland to investigate whether the csf null mutants show a higher susceptibility to antifungals when compared to wild-type. The minimum inhibitory concentrations (MIC) of three antifungal agents, amphotericin B, fluconazole and micafungin, against each fungal isolate were determined according to the NCCLS M27A standard for susceptibility testing of yeasts. […] The MIC endpoint was defined as the lowest concentration that inhibits 80% of fungal growth as compared to the growth control, for fluconazole and micafungin, and 100% inhibition for amphotericin B.
In order to investigate more extensively the effects induced by the loss of the targeted genes on the cell wall (e.g. cell wall permeability), we tested whether the mutant strains were more susceptible to antifungal drugs. Three different antifungal agents were tested at Cleaveland: one polyene (Amphotericin B; a compound that binds to ergosterols and increases membrane permeability), one azole (Fluconazole; a compound that interferes with the ergosterol biosynthesis pathway) and one echinochandin (Micafungin; a compound that inhibits the β-glucan synthetase). No differences in MIC were detected. The MIC of amphotericin B against all isolates, including the clinical isolate and parental strain, was 0.5-1 μg/ml.

Series [4] has as its target hsp90 (Candida albicans, UniProt P46598). Conditions: first stage of double-blind Phase II trial, systemic candidiasis; cited from earlier work.
Where [5] appears, read: 6.1231 null mutant vs wild type.
Setting [6] is: 6.1639 null mutant vs wild type.
Where [7] appears, read: 6.3873 null mutant vs wild type.
[8] abbreviates: Candida albicans, endpoint 80% inhibition of fungal growth, read-out: MIC.

Values after ≈ are worked out from the molar mass of the structure shown. Like-named read-outs stand apart in the source and are kept apart here. Starred links: 1 amine or outer side, 2 acyl side, 3 side chain; linkers in the order of their positions; H or OH if unused. Positions of bridges follow the written chain, without caps; N, C: chain ends. Non-standard residues stand in square brackets, D forms with d. Residues, ends and D or L forms follow the SMILES beside them. *: point of attachment. hTyr(3S-OH,4S-OH,3'-OSO3H) = N[C@H](C(=O)O)[C@H](O)[C@@H](O)c1ccc(O)c(OS(=O)(=O)O)c1; Orn(4R-OH,5R-OH) = O=C([C@H](C[C@@H](O)[C@@H](O)N[*:3])N[*:1])[*:2]; Pro(3S-OH,4S-Me) = C[C@H]1CN[C@H](C(=O)O)[C@H]1O; X1 = CCCCCOc1ccc(-c2cc(-c3ccc(C(=O)*)cc3)no2)cc1; Gln(3R-OH) = NC(=O)C[C@@H](O)[C@H](N)C(=O)O; Hyp = O=C(O)[C@@H]1C[C@@H](O)CN1

Chain of hsp90 (P46598 whole entry): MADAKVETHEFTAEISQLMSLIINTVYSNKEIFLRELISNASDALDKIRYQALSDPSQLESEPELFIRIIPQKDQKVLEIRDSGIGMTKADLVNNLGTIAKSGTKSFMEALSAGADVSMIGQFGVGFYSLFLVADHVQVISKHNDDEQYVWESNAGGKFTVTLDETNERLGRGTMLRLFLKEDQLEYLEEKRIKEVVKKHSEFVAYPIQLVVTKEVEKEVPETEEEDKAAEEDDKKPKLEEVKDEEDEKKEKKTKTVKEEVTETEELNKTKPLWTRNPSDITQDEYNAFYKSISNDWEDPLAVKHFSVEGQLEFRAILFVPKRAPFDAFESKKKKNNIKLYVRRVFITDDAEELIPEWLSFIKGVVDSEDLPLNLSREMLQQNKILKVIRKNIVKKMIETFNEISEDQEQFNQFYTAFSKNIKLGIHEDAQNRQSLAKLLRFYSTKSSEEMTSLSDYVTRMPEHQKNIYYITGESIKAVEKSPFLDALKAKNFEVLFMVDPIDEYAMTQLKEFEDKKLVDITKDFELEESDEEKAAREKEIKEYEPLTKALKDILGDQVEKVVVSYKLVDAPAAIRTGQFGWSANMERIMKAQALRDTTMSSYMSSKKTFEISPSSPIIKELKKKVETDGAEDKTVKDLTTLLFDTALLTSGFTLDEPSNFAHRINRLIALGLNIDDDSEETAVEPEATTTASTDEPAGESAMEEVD

For `CC(C)(C)NC(=O)[C@@H]1C[C@@H]2CCCC[C@@H]2CN1C[C@@H](O)[C@H](Cc1ccccc1)NC(=O)[C@H](CC(N)=O)NC(=O)c1ccc2ccccc2n1` [saquinavir], in series [1], the “inhibition of the activity of Sap2p, Sap1p, Sap1p and Sap1p” value is recorded as “inhibit the activity”.

On to `O=S(=O)(O)c1cc(Nc2nc(Nc3ccccc3)nc(N(CCO)CCO)n2)ccc1/C=C/c1ccc(Nc2nc(Nc3ccccc3)nc(N(CCO)CCO)n2)cc1S(=O)(=O)O` [Calcofluor white, calcofluor white], for which the “Calcofluor white (CW) sensitivity” value in series [2] (setting [5]) is given as “+++”; in series [2] (setting [6]), “+”; in series [2] (setting [7]), “++”; in series [2] (als1 null mutant vs wild type) it was “+”; in series [2] (hwp1 null mutant vs wild type) it was “+”; in series [2] (mp65 null mutant vs wild type), “+++”. For the same molecule, the “Calcofluor white (CW) sensitivity” value in series [2] (pra1 null mutant vs wild type) is “++”; in series [2] (sap9 null mutant vs wild type) it was “+”. Further, the “growth in the presence of calcofluor” value in series [2] (6.1231Δ, 25 μg/ml calcofluor) is recorded as “no more cells were growing”. For the same molecule, the “sensitivity to calcofluor white” value in series [2] (mp65Δ) is listed as “highly sensitive”.

`CC(C)c1nc(CN(C)C(=O)N[C@H](C(=O)N[C@@H](Cc2ccccc2)C[C@H](O)[C@H](Cc2ccccc2)NC(=O)OCc2cncs2)C(C)C)cs1` [ritonavir]: the “inhibition of the activity of Sap2p, Sap1p, Sap1p and Sap1p” value in series [1] is “inhibit the activity”.

As to `CCCCCOc1ccc(-c2cc(-c3ccc(C(=O)N[C@H]4C[C@@H](O)[C@@H](O)NC(=O)[C@@H]5[C@@H](O)[C@@H](C)CN5C(=O)[C@H]([C@H](O)CC(N)=O)NC(=O)[C@H]([C@H](O)[C@@H](O)c5ccc(O)c(OS(=O)(=O)O)c5)NC(=O)[C@@H]5C[C@@H](O)CN5C(=O)[C@H]([C@@H](C)O)NC4=O)cc3)no2)cc1` [micafungin] (X1-[Orn(4R-OH,5R-OH)]T[Hyp][hTyr(3S-OH,4S-OH,3'-OSO3H)][Gln(3R-OH)][Pro(3S-OH,4S-Me)]; lactam 1-C), the MIC (usually the lowest concentration found to suppress growth) in series [3] (setting [8]) turned out to be 0.008 µg/mL (≈ 0.0063 µM).

For the molecule `OC(Cn1cncn1)(Cn1cncn1)c1ccc(F)cc1F` [fluconazole], in series [3] (setting [8]), the MIC turned out to be 0.25 µg/mL (≈ 0.816 µM).

On to `CCCCCCCCCCCCOS(=O)(=O)[O-].[Na+]` [SDS, sodium dodecyl sulfate], for which the “sensitivity to SDS” value in series [2] (mp65Δ, 6.1639Δ and sap9Δ, increasing concentrations of SDS (0-0.5%), 24 h at 37° C.) is given as “hypersensitive”.

For the molecule `[Cl-].[Na+]` [NaCl], the NaCl sensitivity entry in series [2] (setting [5]), in series [2] (setting [6]), in series [2] (setting [7]), in series [2] (als1 null mutant vs wild type), in series [2] (hwp1 null mutant vs wild type) and in series [2] (mp65 null mutant vs wild type) was “+” in each case. Also, the NaCl sensitivity entry in series [2] (pra1 null mutant vs wild type) and in series [2] (sap9 null mutant vs wild type) was “+” each time. Besides, the “sensitivity to NaCl (hyperosmotic stress)” value in series [2] (all six csf mutants, increasing NaCl concentration (0-3M), 24 h at 37° C.) is recorded as “as sensitive as the parental strain”.

Take `C[C@@H]1[C@H](O)[C@@H](C)/C=C/C=C/C=C/C=C/C=C/C=C/C=C/[C@H](O[C@@H]2O[C@H](C)[C@@H](O)[C@H](N)[C@@H]2O)C[C@@H]2O[C@](O)(C[C@@H](O)C[C@@H](O)[C@H](O)CC[C@@H](O)C[C@@H](O)CC(=O)O[C@H]1C)C[C@H](O)[C@H]2C(=O)O` [amphotericin B]: the MIC in series [3] (including the clinical isolate and parental strain, endpoint 100% inhibition) fell in the range of 0.5 to 1 µg/mL.

B1: Mycograb: monoclonal antibodies directed against hsp90 in clinical trials for systemic candidiasis (antibody, chains of the INN, looked up, V domains shown)
VH: EVQLVESGAEVKKPGESLRISCKGSGCIISSYWISWVRQMPGKGLEWMGKIDPGDSYINYSPSFQGHVTISADKSINTAYLQWNSLKASDTAMYYCARGGRDFGDSFDYWGQGTLVTVSS
VL: DVVMTQSPSFLSAFVGDRITITCRASSGISRYLAWYQQAPGKAPKLLIYAASTLQTGVPSRFSGSGSGTEFTLTINSLQPEDFATYYCQHLNSYPLTFGGGTKVDIK
modifications: scFv
notes: monoclonal antibodies directed against hsp90 in clinical trials for systemic candidiasis
Consider B1, for which, in series [4], the serious adverse events entry is listed as “No serious adverse events”.
